Results from the NIST ThermoML archive (doi:10.1016/j.jct.2015.10.018).
Numbers after ± are expanded uncertainties.

How the values were obtained:
[1] = refractive index (Na D-line) (dimensionless); details: 298.15 K; 101.33 kPa; Liquid; Standard Abbe refractometry
[2] = 298.15 K; 101.33 kPa; Liquid; Vibrating tube method

CCn1cc[n+](C)c1.N#CN=C=[N-] [1-ethyl-3-methylimidazolium dicyanamide]
refractive index [1]: 1.51452 ± 0.00051
mass density [2]: 1102.03 ± 1.1 kg/m3

C1CCCCC1 [cyclohexane]
refractive index [1]: 1.42356 ± 0.00033
mass density [2]: 773.88 ± 0.17 kg/m3

CCCCCCC [heptane]
refractive index [1]: 1.38529 ± 0.00037
mass density [2]: 679.57 ± 0.25 kg/m3

Cc1ccccc1 [toluene]
refractive index [1]: 1.49398 ± 0.00031
mass density [2]: 862.23 ± 0.13 kg/m3
